From patent US9051304B2, “Carboxamide compounds and their use as calpain inhibitors V” (AbbVie Deutschland GmbH & Co. KG, priority 2009, dated 2015) come the findings set out here.

Data set [1] is described as follows: Cytosolic clearance in human liver cytosol. The following applies: 0.5 μM compound, 1 mg/ml human liver cytosol, 37° C., pH 7.5; read-out: human cytCL (cytosolic clearance). Type of data set: in vitro ADME. On the procedure: (§1) III Assay for Determining Cytosolic Clearance of Compounds of Formula I: […]
(§2) For comparison purposes data measured with human liver cytosol were contrasted with those obtained with cynomolgus monkey liver cytosol.
(§3) 0.5 μM of a compound to be tested was incubated with 1 mg/ml of human liver cytosol as well as monkey liver cytosol at 37° C. in 0.5 M of phosphate buffer at pH 7.5 while shaking (commercial sources: female cynomolgus liver cytosol from Tebu bio, human liver cytosol from BDgentest).
(§4) In each case aliquots of 65 μl were taken after 0, 5, 10 and 15 min and transferred into wells of a wellplate which were immediately filled with 130 μl of ethanol to stop the reaction. The samples were kept frozen until analysis on a LC/MS/MS system (Applied Biosystems SCIEX 4000).
(§5) Read out parameters were the loss of parent compounds, from which the half life periods (T1/2) were calculated from.
(§6) To assess the stability of the compounds tested the clearance ranges were adjusted to the hepatic plasma flow of the different species according to the following scheme:
(§7) stable=from 0 to about ⅓ of the hepatic plasma flow;
(§8) moderately stable=from about ⅓ to about ⅔ of the hepatic plasma flow;
(§9) instable=more than ⅔ of the hepatic plasma flow.
(§10) Based on this adjustment the following qualifiers were assigned to evaluate the cytosolic stabilities of the compounds tested: […]

The target of data set [2] is T1, calpain-I isolated from human erythrocytes (Homo sapiens, UniProt P07384).
T1 construct: calpain-I—isolated from human erythrocytes; purchased Calbiochem 208713; host or cells: human erythrocytes (tissue isolate)
T1 sequence (P07384 1-714): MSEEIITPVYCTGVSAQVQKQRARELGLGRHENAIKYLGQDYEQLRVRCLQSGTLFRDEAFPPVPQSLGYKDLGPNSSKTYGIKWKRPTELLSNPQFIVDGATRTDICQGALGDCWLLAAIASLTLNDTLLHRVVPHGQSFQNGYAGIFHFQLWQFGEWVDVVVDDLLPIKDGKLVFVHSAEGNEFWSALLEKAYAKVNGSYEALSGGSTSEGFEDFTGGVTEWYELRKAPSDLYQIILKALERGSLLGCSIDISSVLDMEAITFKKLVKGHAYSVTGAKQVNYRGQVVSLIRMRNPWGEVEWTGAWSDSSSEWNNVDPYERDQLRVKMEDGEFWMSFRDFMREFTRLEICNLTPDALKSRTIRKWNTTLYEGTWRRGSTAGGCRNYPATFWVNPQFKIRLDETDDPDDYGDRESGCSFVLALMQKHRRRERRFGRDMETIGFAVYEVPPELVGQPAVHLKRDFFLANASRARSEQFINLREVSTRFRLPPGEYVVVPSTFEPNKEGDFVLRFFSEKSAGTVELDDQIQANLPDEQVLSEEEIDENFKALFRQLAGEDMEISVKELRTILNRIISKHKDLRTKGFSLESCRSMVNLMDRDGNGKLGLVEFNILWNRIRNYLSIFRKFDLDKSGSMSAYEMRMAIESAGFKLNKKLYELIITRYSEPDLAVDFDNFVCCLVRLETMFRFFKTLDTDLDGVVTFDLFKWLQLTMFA
T1 sequence (P04632 1-268 partner): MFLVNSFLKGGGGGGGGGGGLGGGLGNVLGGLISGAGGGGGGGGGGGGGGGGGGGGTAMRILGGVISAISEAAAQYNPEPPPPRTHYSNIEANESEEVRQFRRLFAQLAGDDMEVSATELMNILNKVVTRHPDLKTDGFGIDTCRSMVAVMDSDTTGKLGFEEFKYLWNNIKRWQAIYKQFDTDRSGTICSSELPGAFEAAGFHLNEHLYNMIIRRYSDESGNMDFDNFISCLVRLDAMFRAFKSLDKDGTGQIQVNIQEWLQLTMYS
Briefly: Calpain I enzyme inhibition, kinetic fluorescence assay. In kind it is biochemical. The settings on record: apparent Ki from IC50 by Cheng-Prussoff; human erythrocyte calpain-I. The protocol:
(§11) I Enzyme Inhibition in vitro:
(§12) Testing for blockade of the corresponding enzymic activities was carried out by means of kinetic fluorescence assays (excitation 390 nm, emission 460 nm).
(§13) Apparent Ki values were calculated from the experimentally determined IC50 values by the Cheng-Prussoff relation assuming a reversible competitive enzyme inhibition.
20 nM calpain-I—isolated from human erythrocytes (Calbiochem #208713), 100 μM Suc-Leu-Tyr-AMC (Bachem #I-1355) as substrate in buffer with 62 mM imidazole, 0.3 mM CaCl2, 0.10% CHAPS, 0.05% BSA, 1 mM DTT at pH 7.3 and room temperature.

Data set [3] has as its target T2, cathepsin B isolated from human liver (Homo sapiens, UniProt P07858).
T2 construct: cathepsin B—isolated from human liver; purchased Calbiochem 219362; host or cells: human liver (tissue isolate)
Briefly: Cathepsin B enzyme inhibition, kinetic fluorescence assay. In kind it is biochemical. The settings on record: selectivity ratio vs calpain. The protocol:
as §11, §12, §13
0.25 nM cathepsin B—isolated from human liver (Calbiochem #219362), 100 μM Z-Phe-Arg-AMC (Bachem #I-1160) as substrate 50 mM MES, 2 mM EDTA, 0.05% Brij 35, 2.5 mM L-cysteine, pH 6.0, room temperature.

For data set [4], the target named is T3, cathepsin K activated from recombinant human procathepsin K (Homo sapiens, UniProt P43235).
T3 construct: purchased Calbiochem 342001; host or cells: E. coli
T3 sequence (P43235 115-329): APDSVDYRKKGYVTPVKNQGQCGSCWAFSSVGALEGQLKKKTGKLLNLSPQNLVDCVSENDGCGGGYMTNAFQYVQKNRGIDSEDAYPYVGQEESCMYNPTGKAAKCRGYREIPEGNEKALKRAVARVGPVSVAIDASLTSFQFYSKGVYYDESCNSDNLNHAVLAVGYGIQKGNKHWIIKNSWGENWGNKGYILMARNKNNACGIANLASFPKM
Kind of data set: Cathepsin K enzyme inhibition, kinetic fluorescence assay. The following applies: selectivity ratio vs calpain. Type of data set: biochemical. The protocol: as §11, §12, §13
3 nM cathepsin K—activated from recombinant human procathepsin K from E. coli (Calbiochem #342001), 10 μM Z-Gly-Pro-Arg-AMC (Biomol #P-142) as substrate in 50 mM MES, 2 mM EDTA, 0.05% Brij 35, 2.5 mM L-cysteine, pH 6.0, room temperature.

Data set [5] addresses T4, recombinant human cathepsin S (Homo sapiens, UniProt P25774).
T4 construct: purchased Calbiochem 219343; host or cells: E. coli
Kind of data set: Cathepsin S enzyme inhibition, kinetic fluorescence assay. Type of data set: biochemical. The settings on record: selectivity ratio vs calpain. The protocol:
as §11, §12, §13
0.5 nM recombinant human cathepsin S from E. coli (Calbiochem #219343), 20 μM Z-Val-Val-Arg-AMC (Bachem #I-1540) as substrate in 50 mM MES, 2 mM EDTA, 0.05% Brij 35, 2.5 mM L-cysteine, pH 6.0, room temperature.

Data set [6] can be described thus: Cytosolic clearance in cynomolgus monkey liver cytosol. Type of data set: in vitro ADME. The following applies: female; 0.5 μM compound, 1 mg/ml cynomolgus monkey liver cytosol, 37° C., pH 7.5; read-out: cyno cytCL (cytosolic clearance). The protocol: as §1, §2, §3, §4, §5, §6, §7, §8, §9, §10
Data set [7] addresses T5, cathepsin L isolated from human liver (Homo sapiens, UniProt P07711).
T5 construct: cathepsin L—isolated from human liver; purchased Calbiochem 219402; host or cells: human liver (tissue isolate)
Briefly: Cathepsin L enzyme inhibition, kinetic fluorescence assay. Type of data set: biochemical. The following applies: selectivity ratio vs calpain. The protocol:
as §11, §12, §13
1 nM cathepsin L—isolated from human liver (Calbiochem #219402), 2 μM Z-Phe-Arg-AMC (Bachem #I-1160) as substrate in 50 mM MES, 2 mM EDTA, 0.05% Brij 35, 2.5 mM L-cysteine, pH 6.0, room temperature.

T5 sequence (P07711 114-333): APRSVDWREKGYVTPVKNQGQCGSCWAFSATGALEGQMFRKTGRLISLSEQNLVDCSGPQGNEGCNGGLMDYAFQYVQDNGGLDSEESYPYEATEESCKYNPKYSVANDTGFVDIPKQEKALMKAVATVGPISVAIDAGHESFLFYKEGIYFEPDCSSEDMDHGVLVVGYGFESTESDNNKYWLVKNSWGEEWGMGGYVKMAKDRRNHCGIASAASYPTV
T4 sequence (P25774 115-331): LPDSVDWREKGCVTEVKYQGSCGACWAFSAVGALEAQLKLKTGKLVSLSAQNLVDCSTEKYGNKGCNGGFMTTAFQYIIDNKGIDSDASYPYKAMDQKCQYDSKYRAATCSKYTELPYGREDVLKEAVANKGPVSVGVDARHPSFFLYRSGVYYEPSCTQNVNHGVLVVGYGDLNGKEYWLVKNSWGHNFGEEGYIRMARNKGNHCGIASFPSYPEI

On to `CCONC(=O)C(=O)C(Cc1ccccc1)NC(=O)c1cccnc1-n1ccc(-c2ccccc2)n1` (centres unmarked) [Example 7, N-(4-(Ethoxyamino)-3,4-dioxo-1-phenylbutan-2-yl)-2-(3-phenyl-1H-pyrazol-1-yl)nicotinamide], for which the results for the cytosolic intrinsic clearance at 0.5 μM in data set [1] and in data set [6] were less than 14 µL/min/mg and less than 18 µL/min/mg, respectively. Besides, the Ki in data set [2] was less than 200 nM. Also, the “Sel cat. B (Ki(cathepsin B)/Ki(calpain) ratio)” value in data set [3] was “++ (++ means 4<Ki(cathepsin B)/Ki(calpain)≦10)”. Moreover, in data set [4], the “Sel cat. K (Ki(cathepsin K)/Ki(calpain) ratio)” value is “+ (+ means 2≦Ki(cathepsin K)/Ki(calpain)≦4)”. In addition, the “Sel cat. S (Ki(cathepsin S)/Ki(calpain) ratio)” value in data set [5] was “+++ (+++ means a Ki(cathepsin S)/Ki(calpain) ratio of >50)”. For the same compound, the “Sel cat. L (Ki(cathepsin L)/Ki(calpain) ratio)” value in data set [7] was “++ (++ means 10<Ki(cathepsin L)/Ki(calpain)≦50)”.
For `CCONC(=O)C(=O)C(Cc1ccc(OC)cc1)NC(=O)c1cccnc1-n1ccc(-c2ccccc2)n1` (centres unmarked) [Example 24, N-[4-(Ethoxyamino)-1-(4-methoxyphenyl)-3,4-dioxo-2-butanyl]-2-(3-phenyl-1H-pyrazol-1-yl)nicotinamid], the Ki in data set [2] was less than 200 nM. Further, the “Sel cat. B (Ki(cathepsin B)/Ki(calpain) ratio)” value in data set [3] is “++ (++ means 4<Ki(cathepsin B)/Ki(calpain)≦10)”. Moreover, the “Sel cat. K (Ki(cathepsin K)/Ki(calpain) ratio)” value in data set [4] is “+ (+ means 2≦Ki(cathepsin K)/Ki(calpain)≦4)”. For the same compound, the “Sel cat. S (Ki(cathepsin S)/Ki(calpain) ratio)” value in data set [5] is “++ (++ means 10<Ki(cathepsin S)/Ki(calpain)≦50)”. Moreover, the “Sel cat. L (Ki(cathepsin L)/Ki(calpain) ratio)” value in data set [7] was “++ (++ means 10<Ki(cathepsin L)/Ki(calpain)≦50)”.
In the same order, the values of `CC(C)(C)CONC(=O)C(=O)C(Cc1ccccc1)NC(=O)c1cccnc1-n1ccc(-c2ccccc2)n1` (centres unmarked) [Example 21, N-{4-[(2,2-Dimethylpropoxy)amino]-3,4-dioxo-1-phenyl-2-butanyl}-2-(3-phenyl-1H-pyrazol-1-yl)nicotinamide] are 200 to 300 nM, “+ (+ means 2≦Ki(cathepsin B)/Ki(calpain)≦4)”, “∘”, “+ (+ means 5≦Ki(cathepsin S)/Ki(calpain)≦10)” and “∘”.
Take `CCONC(=O)C(=O)C(Cc1ccccc1)NC(=O)[C@H]1CCC(=O)N1Cc1ccccc1` (stereo partly drawn) [Example 29, (2R)-1-benzyl-N-(4-(ethoxyamino)-3,4-dioxo-1-phenylbutan-2-yl)-5-oxopyrrolidine-2-carboxamide]: the “Calpain activity (Ki(calpain))” value in data set [2] is “∘”. In addition, the “Sel cat. B (Ki(cathepsin B)/Ki(calpain) ratio)” value in data set [3] is “+++ (+++ means a Ki(cathepsin B)/Ki(calpain) ratio of >10)”. The “Sel cat. K (Ki(cathepsin K)/Ki(calpain) ratio)” value in data set [4] is “++ (++ means 4<Ki(cathepsin K)/Ki(calpain)≦10)”. The “Sel cat. S (Ki(cathepsin S)/Ki(calpain) ratio)” value in data set [5] is “++ (++ means 10<Ki(cathepsin S)/Ki(calpain)≦50)”. In data set [7], the “Sel cat. L (Ki(cathepsin L)/Ki(calpain) ratio)” value was “++ (++ means 10<Ki(cathepsin L)/Ki(calpain)≦50)”.
In the case of `CC(C)(C)ONC(=O)C(=O)C(Cc1ccccc1)NC(=O)c1cccnc1-n1ccc(-c2ccccc2)n1` (centres unmarked) [Example 16, N-(4-{[(2-Methyl-2-propanyl)oxy]amino}-3,4-dioxo-1-phenyl-2-butanyl)-2-(3-phenyl-1H-pyrazol-1-yl)nicotinamide], the Ki in data set [2] is 300 to 600 nM. For the same compound, the “Sel cat. B (Ki(cathepsin B)/Ki(calpain) ratio)” value in data set [3] is recorded as “+++ (+++ means a Ki(cathepsin B)/Ki(calpain) ratio of >10)”. For the same compound, the “Sel cat. K (Ki(cathepsin K)/Ki(calpain) ratio)” value in data set [4] is given as “∘”. For the same compound, the “Sel cat. S (Ki(cathepsin S)/Ki(calpain) ratio)” value in data set [5] is recorded as “++ (++ means 10<Ki(cathepsin S)/Ki(calpain)≦50)”. Also, the “Sel cat. L (Ki(cathepsin L)/Ki(calpain) ratio)” value in data set [7] is “+ (+ means 5≦Ki(cathepsin L)/Ki(calpain)≦10)”.
In the same order, the values of `O=C(NOCC1CC1)C(=O)C(Cc1ccccc1)NC(=O)[C@H]1CCC(=O)N1Cc1ccccc1` (stereo partly drawn) [Example 31, (2R)-1-benzyl-N-(4-(cyclopropylmethoxyamino)-3,4-dioxo-1-phenylbutan-2-yl)-5-oxopyrrolidine-2-carboxamide] are less than 200 nM, “+ (+ means 2≦Ki(cathepsin B)/Ki(calpain)≦4)”, “∘”, “++ (++ means 10<Ki(cathepsin S)/Ki(calpain)≦50)” and “∘”.
